The values that follow come from patent publication US20130253056A1, “Continuous Administration of Levodopa and/or Dopa Decarboxylase Inhibitors and Compositions for Same” (NEURODERM, LTD., priority 2009, published 2013).

The conditions of data set [1]: in vivo, sc.
For data set [2] the following is noted: mice. As to the method:
Mice were implanted subcutaneously with Alzet pumps containing Saline (Negative Control), Vehicle or Carbidopa solution. A day following implantation LD/CD was administered orally Q8 h. The level of levodopa and dopamine in the brain was determined following the 4th oral dose of LD/CD.

A short description of data set [3]: Effect of continuous subcutaneous carbidopa on pharmacokinetics of levodopa and carbidopa in pigs.
Excerpt: (§1) In this experiment, the purpose was to determine the effect of continuous subcutaneous administration of carbidopa, with co-administration of oral L-dopa/carbidopa, on the pharmacokinetics of levodopa in pigs.
The conditions of data set [4]: cited from earlier work.
The conditions of data set [5]: in vivo.
Excerpt: as §1
The conditions of data set [6]: man, monkey and dog; cited from earlier work.
Setting [7] is: continuous subcutaneous carbidopa co-administered with any oral LD preparation.

As for `C[C@@](Cc1ccc(O)c(O)c1)(NN)C(=O)O` [Carbidopa, (−)-L-α-hydrazino-α-methyl-β-(3,4-dihydroxybenzene)propanoic acid monohydrate], the “histological analysis of infusion sites (local tolerance)” value in data set [1] is on record as “No histological treatment-related abnormalities were observed”. Also, the “levels of plasma LD” value in data set [2] (oral LD/CD with continuous SC carbidopa 15 mg/kg/d) was “higher levels of plasma LD”. For the same molecule, the “dopamine levels in the brain” value in data set [2] (seven hours post oral LD (LD/CD 32/8 mg/kg TID), continuous SC carbidopa 15 mg/kg/d) is “significantly higher”. Besides, the “effect of increased carbidopa oral dose or frequency on the PK profile of levodopa” value in data set [3] is on record as “did not considerably improve”. In data set [3] (setting [7]), the “increase of the AUC of levodopa” value is reported as over 2 × and the “increase of the half live (t½) of levodopa” value is reported as over 2 ×. In addition, in data set [4], the “solubility in alcohol, chloroform or ether” value is “practically insoluble” and the solubility in water entry was “only slightly soluble in water”. The “treatment related local or systemic toxicity” value in data set [5] is recorded as “No signs of treatment related local or systemic toxicity were observed”. For the same molecule, in data set [6], the “fraction of an oral dose absorbed” value was 40-70%.
